Measured values from paper PMC4610306 (Journal of Medicinal Chemistry, 2015).
“Also recorded” adds a separate entry of the source.

How the values were obtained:
[1] = target: PAD2 (Homo sapiens, UniProt Q9Y2J8); assay: Inactivation kinetics; format: biochemical
[2] = test system: U2OS cells; assay: Cell viability, colorimetric XTT assay; format: cell-based, human
[3] = test system: mouse neutrophils; assay: NET formation, PMA-stimulated neutrophils, DNA/neutrophil elastase overlap assay; format: cell-based; settings: Cl-amidine as reference
[4] = Murine hepatic microsome stability assay; format: in vitro ADME, mouse

Sequence of PAD2 (Q9Y2J8 whole entry): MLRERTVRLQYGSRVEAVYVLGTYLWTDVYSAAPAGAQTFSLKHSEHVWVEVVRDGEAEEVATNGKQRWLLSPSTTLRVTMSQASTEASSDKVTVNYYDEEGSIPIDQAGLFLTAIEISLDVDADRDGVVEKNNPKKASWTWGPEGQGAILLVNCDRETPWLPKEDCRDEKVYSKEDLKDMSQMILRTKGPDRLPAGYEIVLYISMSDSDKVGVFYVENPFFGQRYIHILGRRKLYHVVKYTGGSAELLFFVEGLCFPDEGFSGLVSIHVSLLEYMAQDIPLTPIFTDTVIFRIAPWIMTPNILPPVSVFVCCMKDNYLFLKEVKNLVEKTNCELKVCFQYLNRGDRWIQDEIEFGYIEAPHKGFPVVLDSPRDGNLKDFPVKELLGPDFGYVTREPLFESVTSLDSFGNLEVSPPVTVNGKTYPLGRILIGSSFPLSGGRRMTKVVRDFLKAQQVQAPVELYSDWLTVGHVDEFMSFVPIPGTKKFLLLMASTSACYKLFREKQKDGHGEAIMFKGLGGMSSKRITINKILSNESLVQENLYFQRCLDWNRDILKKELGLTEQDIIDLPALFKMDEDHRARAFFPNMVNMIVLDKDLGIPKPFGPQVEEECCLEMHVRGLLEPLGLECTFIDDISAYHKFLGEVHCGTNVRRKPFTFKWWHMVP

Compound | kinact/KI [1] | EC50 improvement over parent compound Cl-amidine [2] | inhibition of NET formation [3] | other results
CC(C)(C)n1nnc([C@H](CCCNC(=N)CCl)NC(=O)c2ccccc2)n1 [Compound 6, tetrazole tert-butyl Cl-amidine] | 125 M⁻¹ s⁻¹ | – | – | –
CC(C)(C)n1nnc([C@H](CCCNC(=N)CF)NC(=O)c2ccccc2)n1 [Compound 7, tetrazole tert-butyl-F-amidine] | 108 M⁻¹ s⁻¹ | – | – | –
CC(C)(C)n1nnc([C@H](CCCNC(=N)CCl)NC(=O)c2ccc(-c3ccccc3)cc2)n1 [Compound 13, biphenyl tetrazole tert-butyl Cl-amidine] | – | 16 fold | significantly more potent than Cl-amidine; also recorded: significantly reduces NET formation compared to Cl-amidine | effect on cell growth / cell viability ([2]; 20 μM, 72 h, XTT): completely abolished cell growth; also recorded: completely abolishes the growth
CC(C)(C)n1nnc([C@H](CCCNC(=N)CF)NC(=O)c2ccc(-c3ccccc3)cc2)n1 [Compound 14, biphenyl tetrazole tert-butyl-F-amidine] | – | 3.5 fold | – | –
CC(C)(C)n1nnc([C@H](CCCNC(=N)CCl)NC(=O)c2ccccc2C(=O)O)n1 [Compound 21, o-carboxyl tetrazole tert-butyl Cl-amidine] | – | – | inhibits NET formation only at very high concentrations; also recorded: inhibits NET formation at higher doses | stability / half-life in mouse hepatic microsomes [4]: half-life mimics those obtained for the fluoro analogs
N=C(CF)NCCC[C@H](NC(=O)c1ccccc1)C(N)=O [F-amidine, reference compound] | 6.33 M⁻¹ s⁻¹ | – | – | –
